Reference: patent US8263606B2 (Xenon Pharmaceuticals Inc., priority 2008, dated 2012)

Legend:
sodium channel = experiment: Guanidine influx assay (14C-guanidine radiotracer flux, in vitro); format: cell-based, human or rat; conditions: guanidine influx assay using a known cell line that expresses a sodium channel
Method in brief: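 IC50 derives from a four-parameter logistic fit of 14C-guanidine uptake, test agent serially half-diluted around a 1 μM midpoint. Flux was driven by aconitine in low-sodium HEPES/choline saline at ambient temperature, using endogenous or recombinant human or rat sodium-channel cell lines plated ~100,000/well for 20–24 h.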

CYP3A4 = CYP3A4 (Homo sapiens, UniProt P08684); experiment: Cytochrome P450 (CYP450) Inhibition Assay, CYP3A4 (Vivid fluorescence, BOMCC substrate); conditions: human, P450 Baculosomes (recombinant CYP3A4), probe BOMCC (Vivid substrate)
CYP3A4, sequence (P08684 whole entry): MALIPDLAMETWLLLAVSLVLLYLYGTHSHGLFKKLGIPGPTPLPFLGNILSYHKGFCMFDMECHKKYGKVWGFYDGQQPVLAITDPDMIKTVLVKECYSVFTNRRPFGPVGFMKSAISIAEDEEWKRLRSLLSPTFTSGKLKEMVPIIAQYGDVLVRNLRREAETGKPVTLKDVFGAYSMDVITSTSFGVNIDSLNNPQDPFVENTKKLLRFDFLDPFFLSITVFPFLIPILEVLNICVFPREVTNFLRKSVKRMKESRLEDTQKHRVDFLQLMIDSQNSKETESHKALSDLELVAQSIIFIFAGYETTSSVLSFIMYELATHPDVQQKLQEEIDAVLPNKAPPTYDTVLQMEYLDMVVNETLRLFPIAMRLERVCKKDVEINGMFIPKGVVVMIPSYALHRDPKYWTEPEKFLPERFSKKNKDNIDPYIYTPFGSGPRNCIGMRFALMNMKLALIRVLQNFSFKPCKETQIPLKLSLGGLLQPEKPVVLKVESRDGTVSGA

Compound | IC50 (sodium channel; activity level class) [nM] | inhibition at 10 µM (CYP3A4) [%] | melting point | IC50 (sodium channel) [nM]
N#Cc1cccc(CN2C(=O)C3(COc4cc5c(cc43)OCCO5)c3ccccc32)c1 (stereo not drawn) [Example 4.94, 3-[(2′-oxo-2,3-dihydrospiro[furo[2,3-g][1,4]benzodioxine-8,3′-indol]-1′(2′H)-yl)methyl]benzonitrile] | 1 to 100 | > 50 | 173 to 178 °C | –
Cc1cccc(NC(=O)CN2C(=O)C3(COc4cc5c(cc43)CCO5)c3ccccc32)c1C (stereo not drawn) [Example 12.55, N-(2,3-dimethylphenyl)-2-(2′-oxo-5,6-dihydrospiro[benzo[1,2-b:5,4-b′]difuran-3,3′-indol]-1′(2′H)-yl)acetamide] | – | > 50 | 251 to 253 °C | 1000 to 10000
CN(C)c1ccc(-c2cccc3c2C2(COc4cc5c(cc42)OCCO5)C(=O)N3Cc2ccccn2)cn1 (stereo not drawn) [Example 16.59, 4′-(6-(dimethylamino)pyridin-3-yl)-1′-(pyridin-2-ylmethyl)-3,7-dihydro-2H-spiro[benzofuro[5,6-b][1,4]dioxine-8,3′-indolin]-2′-one] | – | > 50 | 187 to 188 °C | 100 to 1000
O=C1Nc2ccccc2C12COc1cc3c(cc12)CCCC3 (stereo not drawn) [Example 3.45, 5′,6′,7′,8′-tetrahydrospiro[indole-3,3′-naphtho[2,3-b]furan]-2(1′H)-one] | 1000 to 10000 | > 50 | > 230 °C | –
CS(=O)(=O)c1cccnc1CN1C(=O)C2(COc3cc4c(cc32)OCCO4)c2ccccc21 (stereo not drawn) [Example 11.79] | – | < 50 | > 250 °C | 100 to 1000
C[C@@H](CN1C(=O)C2(COc3cc4c(cc32)CCO4)c2ccccc21)OCOCc1ccccc1 (stereo partly drawn) [Example 4.25, 1′-{(2S)-2-[(benzyloxy)methoxy]propyl}-5,6-dihydrospiro[benzo[1,2-b:5,4-b′]difuran-3,3′-indol]-2′(1′H)-one] | 100 to 1000 | > 50 | 49 to 52 °C | –
CN1C(=O)C2(COc3cc4c(cc32)CCO4)c2ccccc21 (stereo not drawn) [Example 11.43, 1′-methyl-5,6-dihydrospiro[benzo[1,2-b:5,4-b′]difuran-3,3′-indol]-2′(1′H)-one] | – | < 50 | 187 to 190 °C | 100 to 1000
Cl.O=C1N(CCCNCC(F)(F)F)c2ccccc2C12COc1cc3c(cc12)CCO3 (stereo not drawn) [Example 15.3, 1′-{3-[(2,2,2-trifluoroethyl)amino]propyl}-5,6-dihydrospiro[benzo[1,2-b:5,4-b′]difuran-3,3′-indol]-2′(1′H)-one hydrochloride] | – | > 50 | 124 to 126 °C | 100 to 1000
O=C1NCC(CN2C(=O)C3(COc4cc5c(cc43)CCO5)c3ccccc32)O1 (stereo not drawn) [Example 9.10, 1′-[(2-oxo-1,3-oxazolidin-5-yl)methyl]-5,6-dihydrospiro[benzo[1,2-b:5,4-b′]difuran-3,3′-indol]-2′(1′H)-one] | 1000 to 10000 | < 50 | 197 to 198 °C | –
Cc1cccc(CN2C(=O)C3(COc4cc5c(cc43)OCCO5)c3ccccc32)n1 (stereo not drawn) [Example 1.1, 1′-[(6-methylpyridin-2-yl)methyl]-2,3-dihydrospiro[furo[2,3-g][1,4]benzodioxine-8,3′-indol]-2′(1′H)-one] | 1 to 100 | > 50 | 183 to 185 °C | –
Cc1noc2cc3c(cc12)C1(CO3)C(=O)N(C[C@H]2CCCO2)c2ccccc21 (stereo partly drawn) [Example 9.26, 3-methyl-1′-[(2R)-tetrahydrofuran-2-ylmethyl]spiro[furo[3,2-f][1,2]benzisoxazole-5,3′-indol]-2′(1′H)-one] | 100 to 1000 | < 50 | 134 to 135 °C | –
O=C1N(Cc2cccc(O)c2)c2ccccc2C12COc1cc3c(cc12)CCO3 (stereo not drawn) [Example 11.45, 1′-(3-hydroxybenzyl)-5,6-dihydrospiro[benzo[1,2-b:5,4-b′]difuran-3,3′-indol]-2′(1′H)-one] | – | > 50 | 225 to 227 °C | 100 to 1000
CN1CCOc2cc3c(cc21)C1(CO3)C(=O)N(C[C@H]2CCCO2)c2ccccc21.Cl (stereo partly drawn) [Example 2.29, 1-methyl-1′-[(2R)-tetrahydrofuran-2-ylmethyl]-2,3-dihydro-1H-spiro[furo[3,2-g][1,4]benzoxazine-8,3′-indol]-2′(1′H)-one hydrochloride] | 100 to 1000 | < 50 | > 135 °C (dec.) | –
O=C1N(Cc2ncccc2F)c2ccccc2C12COc1cc3c(cc12)OCCO3 (stereo not drawn) [Example 4.101, 1-[(3-fluoropyridin-2-yl)methyl]-2,3-dihydrospiro[furo[2,3-g][1,4]benzodioxine-8,3′-indol]-2′(1′H)-one] | 1 to 100 | < 50 | 247 to 249 °C | –
COc1cc2c(cc1F)C1(CO2)C(=O)N(Cc2ccc(C(F)(F)F)o2)c2ccccc21 (stereo not drawn) [Example 9.30, 5-fluoro-6-methoxy-1′-{[5-(trifluoromethyl)furan-2-yl]methyl}spiro[1-benzofuran-3,3′-indol]-2′(1′H)-one] | 100 to 1000 | > 50 | 45 to 47 °C | –
O=C1c2ccccc2C(=O)N1CCCN1C(=O)C2(COc3cc4c(cc32)CCO4)c2ccccc21 (stereo not drawn) [Example 9.66, 2-[3-(2′-oxo-5,6-dihydrospiro[benzo[1,2-b:5,4-b′]difuran-3,3′-indol]-1′(2′H)-yl)propyl]-1H-isoindole-1,3(2H)-dione] | – | > 50 | 214 to 217 °C | 1 to 100
Cn1c(=O)oc2cc3c(cc21)C1(CO3)C(=O)Nc2ccccc21 (stereo not drawn) [Example 3.14, 1-methylspiro[furo[3,2-f][1,3]benzoxazole-7,3′-indole]-2,2′(1′H,1′H)-dione] | 1000 to 10000 | < 50 | > 250 °C | –
CN1CCOC(CN2C(=O)C3(COc4cc5c(cc43)OCCO5)c3ccccc32)C1 (stereo not drawn) [Example 11.104, 1-[(4-methylmorpholin-2-yl)methyl]-2,3-dihydrospiro[furo[2,3-g][1,4]benzodioxine-8,3′-indol]-2′(1′H)-one] | – | > 50 | 102 to 112 °C | 100 to 1000
Cc1nc2cc3c(cc2s1)C1(CO3)C(=O)N(CCC(C)C)c2ccccc21 (stereo not drawn) [Example 4.56, 2-methyl-1′-(3-methylbutyl)spiro[furo[2,3-f][1,3]benzothiazole-7,3′-indol]-2′(1′H)-one] | 1000 to 10000 | > 50 | 137 to 138 °C | –
O=C1N(C[C@H]2OC(O)[C@H](O)[C@@H](O)[C@H]2O)c2ccccc2C12COc1cc3c(cc12)OCCO3 (stereo partly drawn) [Example 20, 6-deoxy-6-(2′-oxo-2,3-dihydrospiro[furo[2,3-g][1,4]benzodioxine-8,3′-indol]-1′(2′H)-yl)-D-galactopyranose] | – | < 50 | 122 to 126 °C | 1000 to 10000
N#Cc1cc2c(cc1F)OCC21C(=O)Nc2ccccc21 (stereo not drawn) [Example 3.30, 6-fluoro-2′-oxo-1′,2′-dihydrospiro[1-benzofuran-3,3′-indole]-5-carbonitrile] | 1000 to 10000 | < 50 | 222 to 224 °C | –
CN1C(=O)COc2cc3c(cc21)OCC31C(=O)Nc2ccccc21 (stereo not drawn) [Example 3.23, 4-methyl-4,7-dihydrospiro[benzofuro[5,6-b][1,4]oxazine-8,3′-indoline]-2′,3(2H)-dione] | 1000 to 10000 | < 50 | > 250 °C | –
COCCOCCN1C(=O)C2(COc3cc4c(cc32)OCCO4)c2c(OC)ccc(OC)c21 (stereo not drawn) [Example 2.64, 4′,7′-dimethoxy-1′-[2-(2-methoxyethoxy)ethyl]-2,3-dihydrospiro[furo[2,3-g][1,4]benzodioxine-8,3′-indol]-2′(1′H)-one] | 100 to 1000 | < 50 | 109 to 110 °C | –
COc1cc2c(cc1F)C1(CO2)C(=O)N(CC2CCCCO2)c2ccccc21 (stereo not drawn) [Example 4.64, 5-fluoro-6-methoxy-1′-(tetrahydro-2H-pyran-2-ylmethyl)spiro[1-benzofuran-3,3′-indol]-2′(1′H)-one] | 100 to 1000 | < 50 | 131 to 133 °C | –
COCCOc1ccc2c(c1)OCC21C(=O)Nc2ccccc21 (stereo not drawn) [Example 3.46, 6-(2-methoxyethoxy)spiro[1-benzofuran-3,3′-indol]-2′(1′H)-one] | 1000 to 10000 | < 50 | 172 to 174 °C | –
O=C1N(Cc2ccc(O)cc2)c2ccccc2C12COc1cc3c(cc12)OCCO3 (stereo not drawn) [Example 17.1, 1′-(4-hydroxybenzyl)-2,3-dihydrospiro[furo[2,3-g][1,4]benzodioxine-8,3′-indol]-2′(1′H)-one] | – | > 50 | 243 to 244 °C | 1 to 100
O=C1N(Cc2ncccc2C(F)(F)F)c2ccccc2C12COc1ccc3c(c12)OCCO3 (stereo not drawn) [Example 11.109, 1′-{[3-(trifluoromethyl)pyridin-2-yl]methyl}-2,3-dihydrospiro[furo[3,2-f][1,4]benzodioxine-9,3′-indol]-2′(1′H)-one] | – | < 50 | 245 to 247 °C | 1000 to 10000
COCCOCCN1C(=O)C2(COc3cc4c(cc32)OCCO4)c2c1ccc1ncsc21 (stereo not drawn) [Example 9.71, 6′-[2-(2-methoxyethoxy)ethyl]-2,3-dihydrospiro[furo[2,3-g][1,4]benzodioxine-8,8′-[1,3]thiazolo[5,4-e]indol]-7′(6′H)-one] | – | > 50 | 156 to 158 °C | 100 to 1000
